# Experimental data reported in US8629159B2, “Thiazolidinedione analogues” (Metabolic Solutions Development Company, LLC, priority 2006, dated 2014).
# Marks after values point to notes of the source that are not given here.
# Experiments:
# PPARγ = target: T1, PPARγ (Homo sapiens, UniProt P37231); assay: commercial PPARγ binding assay (Invitrogen; PPAR-LBD/Fluormone PPAR Green complex); settings: for Binding to PPARγ (Fluormone displacement signal): mean of three experiments
# T1 construct: purchased Invitrogen Corporation, Carlsbad, Calif
# T1 sequence (P37231 238-503 limits assumed): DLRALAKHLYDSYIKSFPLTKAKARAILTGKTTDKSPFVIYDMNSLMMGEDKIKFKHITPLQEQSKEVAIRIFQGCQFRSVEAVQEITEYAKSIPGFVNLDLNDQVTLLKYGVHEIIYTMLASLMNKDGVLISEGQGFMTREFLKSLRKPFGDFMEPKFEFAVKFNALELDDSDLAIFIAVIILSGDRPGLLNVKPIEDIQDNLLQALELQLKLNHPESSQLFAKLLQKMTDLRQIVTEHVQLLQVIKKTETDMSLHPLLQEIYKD
# Protocol: The ability of several exemplary compounds of the present invention, shown in Table A, to bind to PPARγ was measured using a commercial binding assay (Invitrogen Corporation, Carlsbad, Calif.) that measures the test compounds ability to bind with PPAR-LBD/Fluormone PPAR Green complex. These assays were performed on three occasions with each assay using four separate wells (quadruplicate) at each concentration of tested compound. The data are mean and SEM of the values obtained from the three experiments. […] Compounds were added at the concentrations shown, which range from 0.1-100 micromolar.
# [1] = test system: Male Dahl salt-sensitive rats; assay: Antihypertensive action in hypertensive Dahl salt-sensitive rats (high salt diet), mean blood pressure by direct femoral arterial cannulation; format: in vivo, rat
# Protocol: Male Dahl salt-sensitive rats were made hypertensive by feeding of a high salt diet (4% salt) for 3 weeks and then treated daily with the indicated dose of hydrochlorothiazide (HCTZ), compound 1, or the combination of HCTZ and compound 1, as compared to the vehicle alone (1% carboxymethylcellulose/0.01% Tween 20) by oral gavage for 8 days. Mean blood pressure was measured by direct femoral arterial cannulation under fed conditions on day 7 and after a 6 hour fast on day 8.
# Referring to FIG. 2 and Table C above, the antihypertensive action of compound 1 is additive with hydrocholothiazide (HCTZ). Data are mean and (SEM) mean blood pressure taken by direct cannulation. N=5; * p<0.05 less than blood pressure in HCTZ-treated rats.
# male Sprague-Dawley rats = assay: Prevention of Medrol-induced hypertension, mean blood pressure by direct femoral arterial cannulation; format: in vivo, rat; settings: hypertension generated by treatment with a glucocorticoid
# Protocol: Hypertension was induced in normal male Sprague-Dawley rats by daily dosing with the glucocorticoid methylprednisolone (Medrol) for 8 days. Separate groups of rats received the vehicle (1% carboxymethylcellulose/0.01% Tween 20) by oral gavage and some of both the vehicle-treated and Medrol-treated rats also received daily doses of compound 1 as shown in Table D below. Mean blood pressure was measured by direct femoral arterial cannulation under fed conditions on day 7 and after a 6 hour fast on day 8. The data are mean and (SEM) mean blood pressure obtained by direct cannulation. N=9; * p<0.05 less than blood pressure in Medrol-treated rats.
# [2] = test system: Male salt-sensitive Dahl rats; assay: Fasting free fatty acids (FFA) and adiponectin in treated Dahl rats; format: in vivo, rat; settings: 3 weeks treatment; 40 mg/kg compound 1, 20 mg/kg rosiglitazone
# Protocol: Doses of these compounds were chosen to produce the same metabolic effects in terms of reduction of triglycerides and elevation of adiponectin (Table E). Direct blood pressure (systolic and diastolic) and heart rate was also measured by telemetry (Tables F—H and FIG. 4).
# [3] = test system: Male salt-sensitive Dahl rats; assay: Blood pressure (systolic and diastolic) and heart rate by telemetry in hypertensive Dahl rats; format: in vivo, rat; settings: for Diastolic blood pressure measured by telemetry, Mean / Heart rate measured by telemetry, Mean / Systolic blood pressure measured by telemetry, Mean: 24 hour average
# Protocol: Direct blood pressure (systolic and diastolic) and heart rate was also measured by telemetry (Tables F—H and FIG. 4). Data in Tables F—H and depicted in FIGS. 4A-4C are 24 hour averages for the last 4 days before the start of the daily oral gavage of treatments (−4, −3, −2, −1) and for the days 1-17 during the treatments shown.
# [4] = day 1 of treatment, rosiglitazone 20 mg/kg, compound 1 40 mg/kg
# [5] = day 2 of treatment, rosiglitazone 20 mg/kg, compound 1 40 mg/kg
# [6] = day 3 of treatment, rosiglitazone 20 mg/kg, compound 1 40 mg/kg
# [7] = day 4 of treatment, rosiglitazone 20 mg/kg, compound 1 40 mg/kg
# [8] = day 5 of treatment, rosiglitazone 20 mg/kg, compound 1 40 mg/kg
# [9] = day 6 of treatment, rosiglitazone 20 mg/kg, compound 1 40 mg/kg
# [10] = day 7 of treatment, rosiglitazone 20 mg/kg, compound 1 40 mg/kg
# [11] = day 8 of treatment, rosiglitazone 20 mg/kg, compound 1 40 mg/kg
# [12] = day 9 of treatment, rosiglitazone 20 mg/kg, compound 1 40 mg/kg
# [13] = day 10 of treatment, rosiglitazone 20 mg/kg, compound 1 40 mg/kg
# [14] = day 11 of treatment, rosiglitazone 20 mg/kg, compound 1 40 mg/kg
# [15] = day 12 of treatment, rosiglitazone 20 mg/kg, compound 1 40 mg/kg
# [16] = day 13 of treatment, rosiglitazone 20 mg/kg, compound 1 40 mg/kg
# [17] = day 14 of treatment, rosiglitazone 20 mg/kg, compound 1 40 mg/kg
# [18] = day 15 of treatment, rosiglitazone 20 mg/kg, compound 1 40 mg/kg
# [19] = day 16 of treatment, rosiglitazone 20 mg/kg, compound 1 40 mg/kg
# [20] = day 17 of treatment, rosiglitazone 20 mg/kg, compound 1 40 mg/kg
# [21] = day −1, before start of treatment
# [22] = day −2, before start of treatment
# [23] = day −3, before start of treatment
# [24] = day −4, before start of treatment
smiles,measurement,setting,value
CCc1ccc(C(=O)COc2ccc(CC3SC(=O)NC3=O)cc2)nc1 (centres unmarked) [Compound 1],Binding to PPARγ (Fluormone displacement signal),PPARγ; 1 μM compound,223
same,Binding to PPARγ (Fluormone displacement signal),PPARγ; 3 μM compound,228
same,Binding to PPARγ (Fluormone displacement signal),PPARγ; 10 μM compound,207
same,Binding to PPARγ (Fluormone displacement signal),PPARγ; 50 μM compound,174
same,Binding to PPARγ (Fluormone displacement signal),PPARγ; 100 μM compound,170
same,Binding to PPARγ (Fluormone displacement signal),PPARγ; .1 μM compound,227
same,Binding to PPARγ (Fluormone displacement signal),PPARγ; .3 μM compound,232
same,binding to PPARγ (in words),PPARγ; FIG. 1 and Table B,particularly poor binders
same,"Mean blood pressure, Fasted","[1]; 6 hour fast, day 8, oral gavage daily, Compound 1 40 mg/kg/day, HCTZ 5 mg/kg/day",151
same,antihypertensive action in combination with HCTZ (in words),[1]; FIG. 2 and Table C,additive
same,"Mean blood pressure, Fed","[1]; fed, day 7, oral gavage daily, Compound 1 40 mg/kg/day, HCTZ 5 mg/kg/day",167
same,blood pressure lowering (in words),[1]; hypertensive Dahl salt-sensitive rats,significantly lower blood pressure
same,blood pressure lowering (in words),male Sprague-Dawley rats,significantly lowered blood pressure
same,Adiponectin,[2],36*
same,FFA,[2],0.70*
same,"Diastolic blood pressure measured by telemetry, Mean",[3]; [4],119
same,"Heart rate measured by telemetry, Mean",[3]; [4],420 bpm
same,"Systolic blood pressure measured by telemetry, Mean",[3]; [4],167
same,"Diastolic blood pressure measured by telemetry, Mean",[3]; [5],117
same,"Heart rate measured by telemetry, Mean",[3]; [5],414 bpm
same,"Systolic blood pressure measured by telemetry, Mean",[3]; [5],167
same,"Diastolic blood pressure measured by telemetry, Mean",[3]; [6],120
same,"Heart rate measured by telemetry, Mean",[3]; [6],406 bpm
same,"Systolic blood pressure measured by telemetry, Mean",[3]; [6],171
same,"Diastolic blood pressure measured by telemetry, Mean",[3]; [7],119
same,"Heart rate measured by telemetry, Mean",[3]; [7],405 bpm
same,"Systolic blood pressure measured by telemetry, Mean",[3]; [7],170
same,"Diastolic blood pressure measured by telemetry, Mean",[3]; [8],122
same,"Heart rate measured by telemetry, Mean",[3]; [8],400 bpm
same,"Systolic blood pressure measured by telemetry, Mean",[3]; [8],173
same,"Diastolic blood pressure measured by telemetry, Mean",[3]; [9],121
same,"Heart rate measured by telemetry, Mean",[3]; [9],395 bpm
same,"Systolic blood pressure measured by telemetry, Mean",[3]; [9],173
same,"Diastolic blood pressure measured by telemetry, Mean",[3]; [10],125
same,"Heart rate measured by telemetry, Mean",[3]; [10],389 bpm
same,"Systolic blood pressure measured by telemetry, Mean",[3]; [10],176
same,"Diastolic blood pressure measured by telemetry, Mean",[3]; [11],128
same,"Heart rate measured by telemetry, Mean",[3]; [11],394 bpm
same,"Systolic blood pressure measured by telemetry, Mean",[3]; [11],180
same,"Diastolic blood pressure measured by telemetry, Mean",[3]; [12],129
same,"Heart rate measured by telemetry, Mean",[3]; [12],388 bpm
same,"Systolic blood pressure measured by telemetry, Mean",[3]; [12],182
same,"Diastolic blood pressure measured by telemetry, Mean",[3]; [13],132
same,"Heart rate measured by telemetry, Mean",[3]; [13],389 bpm
same,"Systolic blood pressure measured by telemetry, Mean",[3]; [13],185
same,"Diastolic blood pressure measured by telemetry, Mean",[3]; [14],132
same,"Heart rate measured by telemetry, Mean",[3]; [14],389 bpm
same,"Systolic blood pressure measured by telemetry, Mean",[3]; [14],184
same,"Diastolic blood pressure measured by telemetry, Mean",[3]; [15],132
same,"Heart rate measured by telemetry, Mean",[3]; [15],391 bpm
same,"Systolic blood pressure measured by telemetry, Mean",[3]; [15],187
same,"Diastolic blood pressure measured by telemetry, Mean",[3]; [16],135
same,"Heart rate measured by telemetry, Mean",[3]; [16],388 bpm
same,"Systolic blood pressure measured by telemetry, Mean",[3]; [16],189
same,"Diastolic blood pressure measured by telemetry, Mean",[3]; [17],135
same,"Heart rate measured by telemetry, Mean",[3]; [17],385 bpm
same,"Systolic blood pressure measured by telemetry, Mean",[3]; [17],192
same,"Diastolic blood pressure measured by telemetry, Mean",[3]; [18],137
same,"Heart rate measured by telemetry, Mean",[3]; [18],390 bpm
same,"Systolic blood pressure measured by telemetry, Mean",[3]; [18],193
same,"Diastolic blood pressure measured by telemetry, Mean",[3]; [19],138
same,"Heart rate measured by telemetry, Mean",[3]; [19],389 bpm
same,"Systolic blood pressure measured by telemetry, Mean",[3]; [19],197
same,"Diastolic blood pressure measured by telemetry, Mean",[3]; [20],141
same,"Heart rate measured by telemetry, Mean",[3]; [20],388 bpm
same,"Systolic blood pressure measured by telemetry, Mean",[3]; [20],195
same,"Diastolic blood pressure measured by telemetry, Mean",[3]; [21],125
same,"Heart rate measured by telemetry, Mean",[3]; [21],393 bpm
same,"Systolic blood pressure measured by telemetry, Mean",[3]; [21],173
same,"Diastolic blood pressure measured by telemetry, Mean",[3]; [22],127
same,"Heart rate measured by telemetry, Mean",[3]; [22],398 bpm
same,"Systolic blood pressure measured by telemetry, Mean",[3]; [22],175
same,"Diastolic blood pressure measured by telemetry, Mean",[3]; [23],123
same,"Heart rate measured by telemetry, Mean",[3]; [23],400 bpm
same,"Systolic blood pressure measured by telemetry, Mean",[3]; [23],170
same,"Diastolic blood pressure measured by telemetry, Mean",[3]; [24],124
same,"Heart rate measured by telemetry, Mean",[3]; [24],406 bpm
same,"Systolic blood pressure measured by telemetry, Mean",[3]; [24],171
same,effect on heart rate (in words),"[3]; telemetry, Tables F-H",reducing heart rate
same,reduction of blood pressure compared with rosiglitazone (in words),"[3]; telemetry, Tables F-H",more effective in reducing blood pressure
